Reference: paper PMC4532598 (European journal of pharmacology, 2015)
“Also recorded” adds a separate entry of the source.

Experiments:
[1] = target: T1, hKOP receptor (Homo sapiens, UniProt P41145); assay: cell-based; format: cell-based; details: for Emax: read-out: Internalization Emax (% receptor internalized)
[2] = target: T1, hKOP receptor; assay: biochemical; format: biochemical; details: for Emax: read-out: [35S]GTPγS binding Emax
[3] = target: T1, hKOP receptor
[4] = target: T2, mKOP receptor (Mus musculus, UniProt P33534); assay: cell-based; format: cell-based
T2 sequence (P33534 whole entry): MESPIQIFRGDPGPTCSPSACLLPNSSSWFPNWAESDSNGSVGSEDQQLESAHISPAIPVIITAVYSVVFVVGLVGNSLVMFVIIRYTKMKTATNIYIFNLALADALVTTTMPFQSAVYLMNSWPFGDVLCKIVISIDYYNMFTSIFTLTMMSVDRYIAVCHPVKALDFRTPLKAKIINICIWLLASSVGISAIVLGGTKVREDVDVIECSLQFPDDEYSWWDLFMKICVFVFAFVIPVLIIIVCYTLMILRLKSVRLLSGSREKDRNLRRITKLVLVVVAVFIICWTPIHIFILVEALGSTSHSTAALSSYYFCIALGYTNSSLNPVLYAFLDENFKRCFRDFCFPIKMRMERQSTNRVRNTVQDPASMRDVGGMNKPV

[5] = target: T2, mKOP receptor; assay: biochemical; format: biochemical; details: for Emax: read-out: [35S]GTPγS binding Emax
[6] = target: T2, mKOP receptor
[7] = test system: mice; details: mouse, in vivo; cited from earlier work

T1 sequence (P41145 whole entry): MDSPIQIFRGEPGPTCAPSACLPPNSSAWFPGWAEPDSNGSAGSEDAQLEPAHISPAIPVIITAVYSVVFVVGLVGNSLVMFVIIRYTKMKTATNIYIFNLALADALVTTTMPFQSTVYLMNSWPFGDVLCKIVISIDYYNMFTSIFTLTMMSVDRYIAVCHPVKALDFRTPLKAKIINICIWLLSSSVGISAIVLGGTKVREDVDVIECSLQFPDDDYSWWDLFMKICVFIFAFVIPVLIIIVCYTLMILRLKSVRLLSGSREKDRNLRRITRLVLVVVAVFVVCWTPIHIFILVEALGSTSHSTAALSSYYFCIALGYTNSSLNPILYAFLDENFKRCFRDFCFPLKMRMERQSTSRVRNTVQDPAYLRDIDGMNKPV

| Compound | log RAi−I [1] | EC50 ([1]; Internalization pEC50) [nM] | Emax [1] [%] | EC50 ([2]; [35S]GTPγS binding EC50, mean) [nM] | Emax [2] [%] | Bias factor (larger RAi divided by smaller) [3] | Bias factor, direction of bias [3] | Functional selectivity (bias) in words [3] | EC50 ([2]; [35S]GTPγS binding pEC50) [nM] | Internalization Emax (% receptor internalized) [1] | further results |
| --- | --- | --- | --- | --- | --- | --- | --- | --- | --- | --- | --- |
| CCC12CCN(CC3(O)CC3)C(Cc3ccc(O)cc31)C2(C)C (centres unmarked) [Bremazocine, bremazocine] | 0.58 ± 0.16 | 1.35 | 39.2 ± 1.8 | 0.95 | 68.2 ± 2 | I ^c, 1.2 | I ^c, 1.2 | did not reach statistical significance |  |  | EC50 ([1]; Internalization EC50, mean): 1.4 nM; log RAi−G [2]: 0.50 ± 0.11 |
| Oc1ccc2c(c1)[C@@]13CCCC[C@@]1(O)[C@@H](C2)N(CC1CCC1)CC3 [Butorphanol, butorphanol] | 0.088 ± 0.18 | 3.31 | 33.4 ± 3.2 | 2.4 | 25.6 ± 1.8 |  | I ^c, 4.7 | did not reach statistical significance | 2.34 |  |  |
| CC[C@]12CCN(CC3CC3)[C@H](C(=O)c3ccc(O)cc31)[C@@H]2C [EKC, ethylketocyclazocine] |  |  | 44.8 ± 2.2 |  | 80.6 ± 1.5 |  | I, 3.1 |  |  |  | log RAi−G [2]: 0.015 ± 0.11 |
| CN1CC[C@]23CCCC[C@H]2[C@H]1Cc1ccc(O)cc13 [Levorphanol, levorphanol] |  |  |  | 72 | 38.1 ± 4.8 |  |  |  |  | did not cause significant internalization; also recorded: lacked an effect on receptor internalization; also recorded: did not cause receptor internalization; also recorded: No internalization | EC50 [4]: 0.83 nM; log RAi−I [4]: 0.29 ± 0.35; Emax ([4]; read-out: Internalization Emax (% receptor internalized)): 29.7 ± 1.7%; Internalization pEC50 [1]: No internalization; Agonist efficacy in [35S]GTPγS binding, in words [2]: weak partial agonist; also recorded: partial agonists; Agonist efficacy in [35S]GTPγS binding, in words [5]: partial agonists; EC50 ([5]; [35S]GTPγS binding pEC50): 30.2 nM; Emax [5]: 62.3 ± 2.9%; Bias factor, direction of bias [6]: I, 244; Bias factor, direction, mKOP receptor (Table 5) [6]: I, 244; Bias factor, mKOP receptor (Table 5) [6]: I, 244; Functional selectivity (bias) in words [6]: internalization-biased; log RAi−G/RAi−I (log bias) [6]: −2.39 ± 0.37 |
| C=CCN1CC[C@]23c4c5ccc(O)c4O[C@H]2[C@@H](O)C=C[C@H]3[C@H]1C5 [Nalorphine, nalorphine] |  | 12 | 23.9 |  | 51.4 ± 2.3 | I ^c, 2.5 | I ^c, 2.5 | did not reach statistical significance | 27.5 | 23.7 ± 4.0% |  |
| CC(C)=CCN1CCC2(C)c3cc(O)ccc3CC1C2C (centres unmarked) [Pentazocine, pentazocine] | −0.87 ± 0.22 | 91.2 | 37 ± 13.3 | 28 | 20.5 ± 6.9 | I ^c, 5.8 | I ^c, 5.8 |  | 28.2 |  | Internalization Emax (% receptor internalized) [4]: did not cause significant internalization; also recorded: lacked significant effects on receptor internalization; also recorded: did not cause receptor internalization; also recorded: not mKOP receptor; also recorded: No internalization; EC50 ([1]; Internalization EC50, mean): 92 nM; Agonist efficacy in [35S]GTPγS binding, in words [2]: partial agonists; Agonist efficacy in [35S]GTPγS binding, in words [5]: partial agonists; Emax [5]: 46.6 ± 2.7%; Bias factor, direction, hKOP receptor (Table 5) [3]: I ^c, 5.8; Bias factor, hKOP receptor (Table 5) [3]: I ^c, 5.8 |
| COC(=O)[C@@H]1C[C@H](OC(C)=O)C(=O)[C@H]2[C@@]1(C)CC[C@H]1C(=O)O[C@H](c3ccoc3)C[C@]21C [Salvinorin A, salvinorin A] |  |  |  |  |  |  |  |  |  |  | Sedation and anhedonia-like actions [7]: produced sedation and anhedonia-like actions |
| CN1c2ccccc2C(c2ccccc2F)=NCC1CNC(=O)c1ccsc1 (centres unmarked) [Tifluadom, tifluadom] |  | 11.2 | 29.6 ± 2.1 | 333 | 97.2 ± 11 |  | I, 11.8 |  |  |  |  |
| COC(=O)/C=C/C(=O)N[C@@H]1CC[C@@]2(O)[C@H]3Cc4ccc(O)c5c4[C@@]2(CCN3CC2CC2)[C@H]1O5 [β-FNA, β-funaltrexamine] |  |  |  |  |  | I ^c, 1.2 | I ^c, 1.2 | did not reach statistical significance |  | 32.8 ± 5.7% | Internalization pEC50 [1]: 8.02 ± 0.47 (9.6); EC50 ([1]; read-out: Internalization EC50, mean): 9.6 nM; [35S]GTPγS binding Emax [2]: 63.7 ± 2.4%; [35S]GTPγS binding pEC50 [2]: 8.08 ± 0.09 (8.4); EC50 ([2]; read-out: [35S]GTPγS binding EC50, mean): 8.4 nM |
| RB-64 |  |  |  |  |  |  |  |  |  |  | Sedation and anhedonia-like actions [7]: did not induce sedation or anhedonia-like effects |
